US20200281834A1, “COMPOSITION FOR PROMOTING EXPRESSION OF AQUAPORIN 3, AND USE THEREOF” (SUNTORY HOLDINGS LIMITED, priority 2017, published 2020)
Where “and” joins values, the source holds several entries; their conditions need not be identical. Equal values may be shown once.

Test system: aquaporin 3
Assay: Expression level of aquaporin 3 in skin epithelial cells (real-time PCR, corrected for GAPDH)
Assay type: cell-based, Human
Conditions: NHEK, 24 hours
[1] = 30 μM, control (culture solution) = 1.0
[2] = 50 μM, control (culture solution) = 1.0

Description: As a control, 50% ethanol was prepared.
As a positive control, retinoic acid was prepared.
Human epidermal keratinocytes (NHEK (AD)) were precultured under conditions of 37° C. and 5% CO2 in a serum-free liquid medium for growing human epidermal keratinocyte (HuMedia-KG2 manufactured by Kurabo Industries, Ltd.) in a 21 cm^2 dish, and cultured until the cells became sub-confluent.
Next, each test sample was added to the culture solution. Each test sample was added to the culture solution in such a manner that the concentration of the wine in the culture solution was equivalent to 1/400 of the concentration of each original composition (wine).
After each test sample was added, the cells were cultured under conditions of 37° C. and 5% CO2 for 24 hours.
Instead of each test sample, 0.125 mL of 50% ethanol as a control was added to 5 mL of the culture solution.
Instead of each test sample, retinoic acid as a positive control was added to the culture solution in such a manner that the concentration of the retinoic acid in the culture solution was 2 μM.
After the compositions as the controls were added, the cells were cultured under conditions of 37° C. and 5% CO2 for 24 hours.
After the culture of skin epithelial cells in “(2) Culture of Skin Epithelial Cells”, RNA was extracted from the cultured cells with ISOGEN (manufactured by Nippon Gene Co., Ltd.).
From 1 μg of the resulting RNA, cDNA was synthesized with Superscript VILO Master Mix (manufactured by Invitrogen).
Thereafter, with primers (primers having nucleotide sequences of SEQ ID NOS: 1 and 2) shown in Table 4, real-time PCR was performed to detect expression of aquaporin 3 (Genbank Accession No. NM_004925).
For PCR, KOD SYBR qPCR Mix (manufactured by Toyobo Co., Ltd.) was used, and the reaction conditions were set such that thermal denaturation was carried out at 98° C. for 10 seconds, annealing was carried out at 60° C. for 10 seconds, and elongation reaction was carried out at 68° C. for 30 seconds.
The fluorescence intensity in the process of amplification was monitored with a quantitative PCR apparatus StepOnePlus (manufactured by Applied Biosystems) to determine the number of cycles taken until the fluorescence intensity became constant. From the number of cycles for aquaporin 3, the expression level was calculated through a standard method.
In parallel to detection of the expression level of aquaporin 3 by real-time PCR, the expression level of glyceraldehyde-3-phosphate dehydrogenase (GAPDH) (Genbank Accession No. NM_002046) which is a housekeeping gene was measured with primers (primers having nucleotide sequences of SEQ ID NOS: 3 and 4) shown in Table 4.
The expression level of aquaporin 3 in the cultured cells was corrected for the expression level of GAPDH, and the expression level relative against the expression level of aquaporin 3 in the control was calculated, where the expression level of aquaporin 3 in the control was defined as 1.0.
The expression level of aquaporin 3 in skin epithelial cells was measured in the same manner as in “Method for Evaluating Expression Level of Aquaporin 3” except that instead of each test sample, 0.0125 mL of each fraction was added to 5 mL of a culture solution.
Each compound was dissolved in a human epidermal keratinocyte growing serum-free liquid medium (HuMedia-KG2 manufactured by Kurabo Industries, Ltd.) to prepare a test sample.
The culture solution was used as a control.

(+)-catechin-(+)-catechin-(−)-epicatechin-3-O-gallate [C-C-ECG]
Relative gene expression level (average) of aquaporin 3 [1]: 2.01
Relative gene expression level (average) of aquaporin 3 [2]: 2.50

Oc1cc(O)c2c(c1)O[C@H](c1ccc(O)c(O)c1)[C@@H](O)[C@@H]2c1c(O)cc(O)c2c1O[C@H](c1ccc(O)c(O)c1)[C@H](O)C2 [C-EC, procyanidin B4]
Relative gene expression level (average) of aquaporin 3 [1]: 1.24
Relative gene expression level (average) of aquaporin 3 [2]: 1.12

Oc1cc(O)c2c(c1)O[C@H](c1ccc(O)c(O)c1)[C@H](O)[C@H]2c1c(O)cc(O)c2c1O[C@H](c1ccc(O)c(O)c1)[C@H](O)C2 [EC-EC, procyanidin B2]
Relative gene expression level (average) of aquaporin 3 [1]: 0.98
Relative gene expression level (average) of aquaporin 3 [2]: 0.99

O=C(O[C@@H]1Cc2c(O)cc(O)cc2O[C@@H]1c1ccc(O)c(O)c1)c1cc(O)c(O)c(O)c1 [ECG, epicatechin gallate]
Relative gene expression level (average) of aquaporin 3 [1]: 1.63
Relative gene expression level (average) of aquaporin 3 [2]: 1.25

Oc1cc(O)c2c(c1)O[C@H](c1ccc(O)c(O)c1)[C@H](O)[C@H]2c1c(O)cc(O)c2c1O[C@H](c1ccc(O)c(O)c1)[C@@H](O)C2 [EC-C, Procyanidin B1]
Relative gene expression level (average) of aquaporin 3 [1]: 1.14
Relative gene expression level (average) of aquaporin 3 [2]: 1.20

Oc1cc(O)c2c(c1)O[C@H](c1ccc(O)c(O)c1)[C@@H](O)[C@@H]2c1c(O)cc(O)c2c1O[C@H](c1ccc(O)c(O)c1)[C@@H](O)C2 [C-C, Procyanidin B3]
Relative gene expression level (average) of aquaporin 3 [1]: 1.19
Relative gene expression level (average) of aquaporin 3 [2]: 1.27

Oc1cc(O)c2c(c1)O[C@H](c1ccc(O)c(O)c1)[C@H](O)[C@H]2c1c(O)cc(O)c2c1O[C@H](c1ccc(O)c(O)c1)[C@H](O)[C@H]2c1c(O)cc(O)c2c1O[C@H](c1ccc(O)c(O)c1)[C@H](O)C2 [PC1, procyanidin C1]
Relative gene expression level (average) of aquaporin 3 [1]: 1.41
Relative gene expression level (average) of aquaporin 3 [2]: 1.34

O=C(O[C@@H]1Cc2c(O)cc(O)c([C@@H]3c4c(O)cc(O)cc4O[C@H](c4ccc(O)c(O)c4)[C@H]3O)c2O[C@@H]1c1ccc(O)c(O)c1)c1cc(O)c(O)c(O)c1 [C-ECG, (+)-catechin-(−)epicatechin-3-O-gallate]
Relative gene expression level (average) of aquaporin 3 [1]: 2.19
Relative gene expression level (average) of aquaporin 3 [2]: 2.59

CC1=C(/C=C/C(C)=C/C=C/C(C)=C/C(=O)O)C(C)(C)CCC1 [Retinoic acid, retinoic acid]
Relative gene expression level (average) of aquaporin 3 (2 μM, control (50% ethanol) = 1.0): 1.61
Relative gene expression level (average) of aquaporin 3 (2 μM, control (culture solution) = 1.0, listed as RA): 1.32 and 1.36 and 1.21

Oc1cc(O)c2c(c1)O[C@H](c1ccc(O)c(O)c1)[C@H](O)C2 [EC, epicatechin]
Relative gene expression level (average) of aquaporin 3 [1]: 1.15
Relative gene expression level (average) of aquaporin 3 [2]: 1.21

catechin
Relative gene expression level (average) of aquaporin 3 [1]: 1.19
Relative gene expression level (average) of aquaporin 3 [2]: 1.14

O=C(O[C@@H]1Cc2c(O)cc(O)cc2O[C@@H]1c1cc(O)c(O)c(O)c1)c1cc(O)c(O)c(O)c1 [EGCG, epigallocatechin gallate]
Relative gene expression level (average) of aquaporin 3 [1]: 1.36
Relative gene expression level (average) of aquaporin 3 [2]: 1.47
